# From patent publication US11350632B2, “Methods, compositions and systems for killing arthropods” (Imerys USA, Inc., priority 2016, dated 2022)
# Assays:
# Assay in all cases: Field trial weekly bioassay on pre-treated substrate
# Assay type in all cases: in vivo
# [1] = system: Aedes aegypti; design: mortality found (summary of field trial): concentration or dose not given beside the values
# Description: (§1) During a field trial in New Orleans, bioassays were performed with (1) the expanded, milled ultrafine perlite of Example 1, (2) a lambda-cyhalothrin insecticide (BASF) as positive control, and (3) a negative control (water only). Six samples of each insecticide (1) and (2) and the control (3) were tested against mosquito species Aedes aegypti (dengue and zika vector), Aedes albopictus (tiger mosquito), and Culex quinquefasciatus (nuisance mosquito) by spraying wood chips stored under houses using a STIHL SR 200 backpack sprayer (18 houses total). The houses were selected based on housing structure (raised house), backyard vegetation (green and lush), and location (suburban neighborhood).
# (§2) The lambda cyhalothrin (industry standard insecticide) was prepared according to manufacturer instructions. Lambda cyhalothrin insecticide was diluted with water for spray application. First the application tank was filled with one-half to three-fourths volume of water. The pH of the water was controlled between 5 and 7 using a buffering agent if necessary to adjust the pH. Next, lambda cyhalothrin insecticide was slowly added to the applicator tank water with maximum agitation. Finally, the tank was filled to the desired volume with continuous agitation while applying the spray. To prepare the perlite insecticide spraying solutions, two-thirds of a gallon of water, 0.32 ounces of non-ionic surfactant (Ninex MT615), and 2 lbs expanded, milled ultrafine perlite were thoroughly blended together in a spray tank. Another one-third gallon of water was then added for a total 1 gallon of spray solution containing 20% of ultrafine perlite mechanical insecticide, 79% of water and 1% of Ninex MT615 as dispersant. The ultrafine perlite solution was mixed directly prior to spraying.
# (§3) The ultrafine perlite insecticide, the positive control (lambda cyhalothrin) and the negative control (water) were sprayed directly under the raised houses and porches (which included eaves if reachable) and under vegetation with an applicator. Pre-treated substrates were also prepared for each location by applying the corresponding insecticide or control to a piece of pine. The target coverage was 5-8 ounces per 100 ft^2, with an average coverage of about 10 g/m^2 to 15 g/m^2.
# (§4) Adult mosquitos for each species were introduced to each location, and were identified and counted two weeks prior to the start of the bioassays. Weekly bioassays were performed to test the efficacy of the insecticides over time by collecting a pre-treated substrate from each site and placing ˜10 female mosquitos of the corresponding species into a labeled bioassay cup with the substrate. The cup was then placed in a growth chamber/counter (depending on temperature) for 1 hour and then 24 hours with sugar solution. The number of dead and live mosquitos was recorded and compared to determine the percent mortality. Results are shown in Tables 8-10, in which 100% indicates complete mortality of mosquitoes and 0% indicates zero mortality (no mosquito deaths).
# [2] = system: Aedes albopictus; design: concentration or dose not given beside the values
# Description: as §1, §2, §3, §4
# [3] = system: Culex quinquefasciatus; design: concentration or dose not given beside the values
# Description: as §1, §2, §3, §4
# [4] = Week 0, ~10 female mosquitos with pre-treated substrate
# [5] = week not stated, each mosquito species
compound,measurement,setting,value
"CC1(C)[C@H](C(=O)O[C@H](C#N)c2cccc(Oc3ccccc3)c2)[C@@H]1/C=C(\Cl)C(F)(F)F (racemic) [Lambda cyhalothrin, lambda-cyhalothrin]",Mortality (%) of Andes aegypti,[1]; [4],0%
same,Mortality (%) of Andes aegypti,[1]; Week 1,0%
same,Mortality (%) of Andes aegypti,[1]; Week 2,100%
same,Mortality (%) of Andes aegypti,[1]; Week 3,100%
same,Mortality (%) of Andes aegypti,[1]; Week 4,100%
same,Mortality (%) of Andes aegypti,[1]; Week 5 (heavy rainfall),100%
same,Mortality (%) of Andes aegypti,[1]; Week 6,100%
same,Mortality (%) of Andes aegypti,[1]; Week 7,100%
same,Mortality (%) of Andes aegypti,[1]; Week 8,100%
same,mortality found (summary of field trial),[1]; [5],100%
same,Mortality (%) of Andes albopictus,[2]; [4],0%
same,Mortality (%) of Andes albopictus,[2]; Week 1,0%
same,Mortality (%) of Andes albopictus,[2]; Week 2,100%
same,Mortality (%) of Andes albopictus,[2]; Week 3,100%
same,Mortality (%) of Andes albopictus,[2]; Week 4,100%
same,Mortality (%) of Andes albopictus,[2]; Week 5 (heavy rainfall),100%
same,Mortality (%) of Andes albopictus,[2]; Week 6,100%
same,Mortality (%) of Andes albopictus,[2]; Week 7,100%
same,Mortality (%) of Andes albopictus,[2]; Week 8,100%
same,mortality found (summary of field trial),[2]; [5],100%
same,Mortality (%) of Culex quinquefasciatus,[3]; [4],0%
same,Mortality (%) of Culex quinquefasciatus,[3]; Week 1,0%
same,Mortality (%) of Culex quinquefasciatus,[3]; Week 2,100%
same,Mortality (%) of Culex quinquefasciatus,[3]; Week 3,100%
same,Mortality (%) of Culex quinquefasciatus,[3]; Week 4,97%
same,Mortality (%) of Culex quinquefasciatus,[3]; Week 5 (heavy rainfall),100%
same,Mortality (%) of Culex quinquefasciatus,[3]; Week 6,93%
same,Mortality (%) of Culex quinquefasciatus,[3]; Week 7,100%
same,Mortality (%) of Culex quinquefasciatus,[3]; Week 8,100%
same,mortality found (summary of field trial),[3]; [5],100%
